Test results: ChEMBL document CHEMBL1201862, “PubChem BioAssay data set” (2004)
The source made the active and inactive calls.

How the values were obtained:
[1] = biological target: T1, Dual specificity protein phosphatase 3 (Homo sapiens, UniProt P51452); experiment: VHR1 phosphatase inhibitors, primary screen, biochemical, absorbance, uHTS (AID 1654)
[2] = biological target: T1, Dual specificity protein phosphatase 3; experiment: VHR1 phosphatase inhibitors, biochemical (AID 1878)
[3] = biological target: T2, Dual specificity protein phosphatase 6 (Rattus norvegicus, UniProt Q64346); experiment: MKP-3 phosphatase inhibitors, primary screen, biochemical, rat enzyme, in vitro (AID 425)
T2 sequence (Q64346 whole entry): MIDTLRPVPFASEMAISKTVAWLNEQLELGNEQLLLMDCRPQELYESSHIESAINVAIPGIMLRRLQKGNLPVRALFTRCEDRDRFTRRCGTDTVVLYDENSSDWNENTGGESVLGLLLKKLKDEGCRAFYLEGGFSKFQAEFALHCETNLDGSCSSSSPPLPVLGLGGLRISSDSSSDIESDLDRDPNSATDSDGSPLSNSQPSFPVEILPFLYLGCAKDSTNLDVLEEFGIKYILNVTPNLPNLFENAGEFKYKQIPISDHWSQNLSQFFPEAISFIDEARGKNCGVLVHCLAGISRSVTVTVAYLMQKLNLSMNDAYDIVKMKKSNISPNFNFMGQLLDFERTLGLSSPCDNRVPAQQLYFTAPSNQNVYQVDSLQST

[4] = biological target: T3, Carboxy-terminal domain RNA polymerase II polypeptide A small phosphatase 1 (Homo sapiens, UniProt Q9GZU7); experiment: inhibitors of CTDSP1, concentration-response testing, biochemical assay, absorbance-based, actives from ultra-high-throughput screening (AID 540297); assay type: functional
T3 sequence (Q9GZU7 whole entry): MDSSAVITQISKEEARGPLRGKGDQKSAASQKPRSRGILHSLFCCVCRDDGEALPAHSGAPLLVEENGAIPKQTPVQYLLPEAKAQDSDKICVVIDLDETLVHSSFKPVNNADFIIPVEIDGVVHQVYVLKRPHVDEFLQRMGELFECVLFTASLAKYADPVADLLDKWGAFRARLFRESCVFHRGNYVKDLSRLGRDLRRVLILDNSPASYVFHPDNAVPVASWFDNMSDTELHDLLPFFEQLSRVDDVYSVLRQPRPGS

Streptokinase A = biological target: T4, Streptokinase A (Streptococcus pyogenes serotype M1, UniProt P10520); experiment: S. pyogenes streptokinase expression inhibitors, potency, dose response, plasminogen activation absorbance, OD405 (AID 1914); assay type: functional, Streptococcus pyogenes M1 GAS;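 note: secreted streptokinase activity via plasminogen activation per viability signal from cell pellet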
T4 sequence (P10520 whole entry): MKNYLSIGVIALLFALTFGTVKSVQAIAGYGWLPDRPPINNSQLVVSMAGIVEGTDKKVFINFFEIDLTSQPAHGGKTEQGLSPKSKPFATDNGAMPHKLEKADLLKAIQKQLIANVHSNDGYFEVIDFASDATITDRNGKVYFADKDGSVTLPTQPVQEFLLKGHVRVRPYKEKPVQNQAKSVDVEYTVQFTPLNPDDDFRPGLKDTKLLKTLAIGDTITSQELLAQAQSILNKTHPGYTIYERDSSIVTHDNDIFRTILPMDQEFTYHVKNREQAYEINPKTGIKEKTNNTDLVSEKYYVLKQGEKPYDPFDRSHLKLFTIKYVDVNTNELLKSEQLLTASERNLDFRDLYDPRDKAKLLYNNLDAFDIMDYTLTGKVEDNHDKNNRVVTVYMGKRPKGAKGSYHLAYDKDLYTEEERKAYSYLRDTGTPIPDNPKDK

[5] = biological target: T5, Intestinal-type alkaline phosphatase (Mus musculus, UniProt P24822); experiment: PubChem AID 488875; assay type: functional
T5 sequence (P24822 whole entry): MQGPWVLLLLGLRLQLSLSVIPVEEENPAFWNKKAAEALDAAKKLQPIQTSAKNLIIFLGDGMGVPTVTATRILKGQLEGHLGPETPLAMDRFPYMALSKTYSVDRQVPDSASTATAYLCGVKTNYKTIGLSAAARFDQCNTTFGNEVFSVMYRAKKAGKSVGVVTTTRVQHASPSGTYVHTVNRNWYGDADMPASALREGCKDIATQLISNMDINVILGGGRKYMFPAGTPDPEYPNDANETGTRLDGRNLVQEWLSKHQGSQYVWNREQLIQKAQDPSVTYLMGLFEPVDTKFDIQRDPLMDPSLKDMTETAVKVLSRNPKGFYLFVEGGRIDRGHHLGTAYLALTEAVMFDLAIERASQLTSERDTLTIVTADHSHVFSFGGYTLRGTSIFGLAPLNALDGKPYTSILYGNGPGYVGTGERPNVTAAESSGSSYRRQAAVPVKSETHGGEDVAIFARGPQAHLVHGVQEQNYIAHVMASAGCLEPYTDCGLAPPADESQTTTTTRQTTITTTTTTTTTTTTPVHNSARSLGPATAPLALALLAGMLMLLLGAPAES

[6] = biological target: T6, Intestinal-type alkaline phosphatase (Homo sapiens, UniProt P09923); experiment: human intestinal alkaline phosphatase activators, dose response, biochemical, luminescence, uHTS hits (AID 463120); assay type: functional
T6 sequence (P09923 whole entry): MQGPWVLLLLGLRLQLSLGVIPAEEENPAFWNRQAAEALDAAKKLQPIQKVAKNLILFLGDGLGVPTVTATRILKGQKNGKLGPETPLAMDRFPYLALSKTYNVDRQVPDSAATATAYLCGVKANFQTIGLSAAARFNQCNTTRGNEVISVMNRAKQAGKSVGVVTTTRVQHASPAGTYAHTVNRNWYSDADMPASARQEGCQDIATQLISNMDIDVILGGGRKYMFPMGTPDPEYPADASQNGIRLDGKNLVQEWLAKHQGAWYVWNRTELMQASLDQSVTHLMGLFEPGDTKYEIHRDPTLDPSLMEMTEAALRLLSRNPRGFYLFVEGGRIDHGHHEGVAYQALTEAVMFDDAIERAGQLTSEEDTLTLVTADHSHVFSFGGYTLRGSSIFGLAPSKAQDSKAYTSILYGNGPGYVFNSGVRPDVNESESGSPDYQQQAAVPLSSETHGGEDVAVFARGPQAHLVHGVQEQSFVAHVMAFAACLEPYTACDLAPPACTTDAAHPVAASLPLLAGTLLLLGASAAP

[7] = biological target: T6, Intestinal-type alkaline phosphatase; experiment: human IAP activators, dose response, biochemical, luminescent, uHTS hits, set 2 (AID 488817); assay type: functional;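 note: potency of activators that raise enzyme activity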
[8] = biological target: T7, Alkaline phosphatase, tissue-nonspecific isozyme (Homo sapiens, UniProt P05186); experiment: TNAP enzyme activators, dose response, selectivity assay for human IAP activator project, biochemical, TNAP isozyme, human IAP uHTS hits (AID 488886); assay type: functional;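 note: potency of compounds raising TNAP activity as a selectivity check on IAP activators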
T7 sequence (P05186 whole entry): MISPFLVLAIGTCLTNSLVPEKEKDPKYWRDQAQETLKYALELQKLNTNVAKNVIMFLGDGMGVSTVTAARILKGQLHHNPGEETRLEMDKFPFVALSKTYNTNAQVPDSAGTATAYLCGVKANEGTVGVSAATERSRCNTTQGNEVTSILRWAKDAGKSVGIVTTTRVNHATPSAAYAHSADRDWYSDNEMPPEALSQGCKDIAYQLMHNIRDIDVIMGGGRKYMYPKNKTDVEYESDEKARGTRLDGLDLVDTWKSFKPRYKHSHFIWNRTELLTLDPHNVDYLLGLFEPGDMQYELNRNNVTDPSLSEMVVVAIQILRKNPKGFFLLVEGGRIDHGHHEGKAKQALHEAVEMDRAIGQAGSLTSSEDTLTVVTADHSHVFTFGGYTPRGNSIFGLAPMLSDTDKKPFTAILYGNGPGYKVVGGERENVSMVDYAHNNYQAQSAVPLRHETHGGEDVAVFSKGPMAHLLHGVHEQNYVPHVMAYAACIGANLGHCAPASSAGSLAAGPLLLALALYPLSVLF

[9] = biological target: Lysine-specific demethylase 4C (Homo sapiens, UniProt Q9H3R0); experiment: GASC-1 (JMJD2C) histone demethylase inhibitors, dose response, biochemical, DELFIA europium, cherry-picked samples (AID 488835); assay type: functional
Chain of Lysine-specific demethylase 4C (Q9H3R0 whole entry): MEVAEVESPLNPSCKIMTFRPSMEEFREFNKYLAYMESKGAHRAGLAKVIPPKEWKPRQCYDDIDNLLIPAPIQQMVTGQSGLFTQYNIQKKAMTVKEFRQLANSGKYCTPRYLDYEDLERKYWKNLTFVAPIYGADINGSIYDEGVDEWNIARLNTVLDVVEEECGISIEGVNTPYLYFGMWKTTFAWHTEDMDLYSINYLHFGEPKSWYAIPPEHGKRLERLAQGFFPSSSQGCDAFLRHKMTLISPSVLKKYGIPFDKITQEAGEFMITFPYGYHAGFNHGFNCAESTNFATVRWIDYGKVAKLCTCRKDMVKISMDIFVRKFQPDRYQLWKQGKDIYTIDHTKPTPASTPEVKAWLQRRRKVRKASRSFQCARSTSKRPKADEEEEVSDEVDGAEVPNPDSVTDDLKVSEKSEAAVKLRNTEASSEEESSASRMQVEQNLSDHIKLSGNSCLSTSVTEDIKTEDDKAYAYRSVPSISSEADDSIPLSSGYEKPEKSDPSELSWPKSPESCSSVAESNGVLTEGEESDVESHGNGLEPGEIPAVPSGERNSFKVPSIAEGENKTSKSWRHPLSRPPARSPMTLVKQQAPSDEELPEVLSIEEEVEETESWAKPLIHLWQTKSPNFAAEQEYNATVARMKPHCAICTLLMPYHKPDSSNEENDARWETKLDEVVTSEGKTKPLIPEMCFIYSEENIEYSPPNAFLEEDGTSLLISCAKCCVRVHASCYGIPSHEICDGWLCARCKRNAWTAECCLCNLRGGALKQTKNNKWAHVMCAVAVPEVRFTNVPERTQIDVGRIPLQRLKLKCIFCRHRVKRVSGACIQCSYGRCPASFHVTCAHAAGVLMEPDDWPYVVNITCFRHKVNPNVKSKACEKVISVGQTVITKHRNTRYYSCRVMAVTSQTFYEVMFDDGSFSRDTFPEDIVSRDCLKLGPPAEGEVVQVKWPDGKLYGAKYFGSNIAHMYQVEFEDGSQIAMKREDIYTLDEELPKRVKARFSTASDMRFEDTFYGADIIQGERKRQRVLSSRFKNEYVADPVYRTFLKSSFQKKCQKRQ

[10] = biological target: T5, Intestinal-type alkaline phosphatase; experiment: PubChem AID 488785; assay type: functional
[11] = biological target: T7, Alkaline phosphatase, tissue-nonspecific isozyme; experiment: TNAP enzyme inhibition by screening hits, dose response, selectivity assay for mouse IAP inhibitor project, biochemical, human TNAP, uHTS hits (AID 488906); assay type: functional
[12] = biological target: T6, Intestinal-type alkaline phosphatase; experiment: inhibition of human intestinal alkaline phosphatase – biochemical, dose response (AID 488876); assay type: functional
[13] = Luminescence Cell-Based/Microorganism Confirmation at Dose of Inhibitors of Trypanosoma cruzi Infection. [Related pubchem assays: 1885, 1968 ]; assay type: functional
[14] = inhibitors of intracellular T. cruzi replication, confirmation, NIH3T3 host cells, beta-gal luminescence (AID 2044); assay type: functional, cell-based;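 note: intracellular parasites grown in NIH/3T3 mouse fibroblasts as host cells; luminescent beta-galactosidase reporter signal from transgenic T. cruzi replicating inside host cells; inhibitors lower the luminescence signal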
[15] = Luminescence Cell-Based Secondary HTS screen to identify cytotoxic compounds of NIH3T3 cells. [Related pubchem assays: 1885, 1968 ]; assay type: functional
[16] = cytotoxicity toward NIH3T3 fibroblasts, dose response, counter-screen, cell-based, ATP luminescence, mouse fibroblasts (AID 2010); assay type: functional;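 note: cells exposed to compound for about 90 hours before reading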
[17] = inhibitors of Trypanosoma cruzi host-cell infection, confirmation, beta-gal luminescence, NIH3T3 host cells (AID 2630); assay type: functional, cell-based; settings: Mus musculus

T1 sequence (P51452 whole entry): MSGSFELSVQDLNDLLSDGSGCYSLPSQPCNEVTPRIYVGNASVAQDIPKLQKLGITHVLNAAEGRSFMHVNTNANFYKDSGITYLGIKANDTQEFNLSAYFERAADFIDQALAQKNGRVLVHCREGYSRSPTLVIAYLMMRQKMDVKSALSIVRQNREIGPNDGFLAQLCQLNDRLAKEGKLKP

In the case of `CN1C(=O)/C(=C2\SC(=S)N(CCCCCC(=O)O)C2=O)c2ccccc21`, the IC50 [1] is reported as 5.97 µM (active), the IC50 [2] is reported as 2.4 µM (active) and the IC50 [3] is reported as > 158 µM (not active). The IC50 [4] was 0.836 µM (active).
In the case of `CCC(NC(=S)NC1CCCCC1)c1ccc(C(C)C)cc1` (stereo not drawn), the EC50 (Streptokinase A) is reported as 43.4 µM (active), the EC50 [5] is reported as 60.1 µM (active) and the EC50 [6] is reported as 81.2 µM (active). For the same molecule, the EC50 [7] was 52.4 µM (active) and the EC50 [8] was 54.3 µM (active).
With `COc1ccccc1N1CCN(C(=O)CSc2nc(C)cc(O)n2)CC1` the AC50 [9] was 10.1 µM (active).
For `CCn1nc(C)c(CN2CCC(C(=O)Nc3cccc(-c4cccc(Cl)c4)c3)CC2)c1C`, the IC50 [10] was 1.87 µM (active), the IC50 [11] was 41 µM (active) and the IC50 [12] was 4.61 µM (active).
For `CCOc1ccc2oc(=O)cc(CN3CCN(Cc4ccccc4)CC3)c2c1`, the EC50 [13] was 0.903 µM (inconclusive), the EC50 [14] was 0.216 µM (active) and the EC50 [15] was > 195 µM (inconclusive). The EC50 [16] was > 30 µM (not active) and the EC50 [17] was 0.903 µM (active).
